Measurements from patent US9163020B2, “Azaindole compounds, synthesis thereof, and methods of using the same” (Global Alliance for TB Drug Development, priority 2013, dated 2015).
Values after ≈ are worked out from the molar mass of the structure shown. Like-named read-outs stand apart in the source and are kept apart here.

Experiments:
hERG = hERG (Homo sapiens, UniProt Q12809); assay: hERG assay, IonWorks electrophysiology
Protocol: Compounds were tested on voltage-gated ion channels using the medium-throughput electrophysiology IonWorks™ device. […] For carrying out the experiment, a boat in the “Cells” position of the IonWorks™ instrument was loaded with the cell suspension, and a 96-well PBS destination plate was placed in the “Plate 1” position. A 384-well PatchPlate™ was placed in the IonWorks™ plenum and held in position using the plenum clamp. From this point the experiment progress is automated and ultimately reports a non-cumulative concentration-effect curve for test compound.

[1] = format: in vitro ADME
Protocol: 1 μM compound was incubated with 1 mg/mL of microsomes (Pooled HLM/MLM with 20 mg/ml protein cone.) at 37° C. in 166 μL of buffer (100 mM phosphate buffer, pH-7.4) containing 2 mM NADPH solution. […] The quench plate was centrifuged at 4000 rpm for 15 min. 30 μL of supernatant was diluted to 300 μL with 50% acetonitrile in water and substrate depletion was analyzed using LC-MS/MS.

in vivo [2] = conditions: male, Wistar, rat, po, 100 mg/kg
in vivo [3] = assay: in vivo
Protocol: PK of azaindoles compounds was performed in mice (healthy and infected) and rats. Mice were pretreated with 100 mg/kg ABT two hours prior to the compound administration. PK data from healthy mice was used to design the dosing regimen for the efficacy study while, information from infected mice was used for the PK-PD analysis.
All oral administration was performed as suspensions in 0.5% HPMC, and 0.1% Tween 80. […] All blood samples were collected via sapheneous vein into Microvette CB300® (Starstedt, Germany) tubes coated with Lithium-Heparin, and plasma was prepared from the collected blood by centrifugation.
One mg/mL stock solution of each compound was prepared in Dimethylsulfoxide (DMSO) and diluted two-fold with acetonitrile. A sixteen point calibration curve was utilized for each analyte, and the standard curves ranged from 0.001 to 40 μg/mL. Plasma/BAL samples were precipitated by adding chilled acetonitrile (1:10 v/v) containing carbamazepine as internal standard (250 ng/mL). Samples were vortexed, and centrifuged at 4000 rpm for 30 min at 10° C. The resulting supernatant was mixed with mobile phase (50% acetonitrile in water with 0.1% formic acid). […] of sample was injected on to a liquid chromatographic system (Waters-ACQUTY UPLC) coupled to triple quadrupole mass spectrometer (Waters-ACQUTY-TQD; MS/MS). Samples were acquired in positive ion mode and detected by multiple reaction monitoring (MRM). Concentrations of the analyte were determined from a standard curve obtained by plotting known concentrations of the analyte against peak area ratios (analyte/internal standard peak response).
PK analysis of the plasma concentration-time relationships were performed with WinNonlin Phoenix Software (version 6.2; Pharsight, USA). […] The maximum concentration of drug in plasma (Cmax), time to Cmax (Tmax), elimination half-life (t1/2), and AUC from time zero to infinity (AUC0-∞) were estimated. […] Minimum of three sample points in the terminal slope were used to estimate to calculate half-life.

[4] = test system: Mycobacterium tuberculosis (Mtb) H37Rv; assay: Mtb minimal bactericidal concentration (MBC), plating from MIC plates; format: cell-based; conditions: Table 4, read-out: Mtb MBC
Protocol: Aliquots from sample wells (MIC and higher) from the MIC plates were diluted 1:10 and plated on 7H10 agar plates. Plates were incubated at 37° C. for 3-4 weeks, CFU was enumerated.

[5] = Protocol: Viability of cryopreserved hepatocytes was determined using trypan blue and the cell conc. was adjusted to 10^6 cells per mL with buffer (KHB buffer). 1 μM compound (in Acetonitrile; 0.01% DMSO) was incubated with 500 μL of hepatocyte cells (1 million cells per mL) in a NUNC plate. […] Supernatants were analyzed using LC-MS/MS for substrate depletion.
[6] = test system: panel of human targets and cardiac channels
in vitro = in vitro ADME; conditions: pH 7.4; mouse microsomes; read-out: Mo micrsomal Clint
Protocol: 1 μM compound was incubated with 1 mg/mL of microsomes (Pooled HLM/MLM with 20 mg/ml protein cone.) at 37° C. in 166 μL of buffer (100 mM phosphate buffer, pH-7.4) containing 2 mM NADPH solution. 20 μL of incubation mix was quenched with 4 volumes chilled acetonitrile at different time points i.e. 0, 2, 5, 10, 20 and 30 min in a fresh 96 well plate. The quench plate was centrifuged at 4000 rpm for 15 min. 30 μL of supernatant was diluted to 300 μL with 50% acetonitrile in water and substrate depletion was analyzed using LC-MS/MS.

[7] = test system: CYP1A2, CYP2C9, CYP2C19, CYP2D6, CYP3A4; conditions: CYP1A2, CYP2C9, CYP2C19, CYP2D6, CYP3A4
[8] = test system: Mycobacterium tuberculosis (Mtb) H37Rv ATCC 27294; assay: microbe, parasite or virus in culture; format: cell-based; conditions: Mycobacterium tuberculosis, read-out: Mtb MIC
[9] = test system: A549 human lung carcinoma cells; format: cell-based; conditions: 72 hours treatment; Table 4
Protocol: The in vitro cytotoxicity of compounds were measured against A549 human lung carcinoma cells as describedin Eakin et. al (2012). Briefly, A549 cells (ATCC) were grown in RPMI medium (GIBCO-BRL) containing 10% heat-inactivated fetal bovine serum (GIBCO-BRL) and 1 mM L-glutamine (GIBCO-BRL) at a density of 1,000 cells/well. After incubation of the cells with compound in a CO2 atmosphere at 37° C. for 72 hours, cell viability was determined following addition of […] of resazurin solution (Sigma), by measuring fluorescence (excitation at 535 nm, emission at 590 nm) using a fluorimeter.

[10] = test system: hypoxia induced non-replicating persistent (NRP) Mtb cells; assay: Activity against hypoxia induced non-replicating persistent (NRP) Mtb (HBC, Wayne model); format: cell-based, Mycobacterium tuberculosis; conditions: hypoxic conditions, Wayne model; Table 4
[11] = Wistar, rat, in vivo, iv, 2 mg/kg
[12] = Wistar, rat, in vivo, po, 20 mg/kg

hERG, sequence (Q12809 whole entry): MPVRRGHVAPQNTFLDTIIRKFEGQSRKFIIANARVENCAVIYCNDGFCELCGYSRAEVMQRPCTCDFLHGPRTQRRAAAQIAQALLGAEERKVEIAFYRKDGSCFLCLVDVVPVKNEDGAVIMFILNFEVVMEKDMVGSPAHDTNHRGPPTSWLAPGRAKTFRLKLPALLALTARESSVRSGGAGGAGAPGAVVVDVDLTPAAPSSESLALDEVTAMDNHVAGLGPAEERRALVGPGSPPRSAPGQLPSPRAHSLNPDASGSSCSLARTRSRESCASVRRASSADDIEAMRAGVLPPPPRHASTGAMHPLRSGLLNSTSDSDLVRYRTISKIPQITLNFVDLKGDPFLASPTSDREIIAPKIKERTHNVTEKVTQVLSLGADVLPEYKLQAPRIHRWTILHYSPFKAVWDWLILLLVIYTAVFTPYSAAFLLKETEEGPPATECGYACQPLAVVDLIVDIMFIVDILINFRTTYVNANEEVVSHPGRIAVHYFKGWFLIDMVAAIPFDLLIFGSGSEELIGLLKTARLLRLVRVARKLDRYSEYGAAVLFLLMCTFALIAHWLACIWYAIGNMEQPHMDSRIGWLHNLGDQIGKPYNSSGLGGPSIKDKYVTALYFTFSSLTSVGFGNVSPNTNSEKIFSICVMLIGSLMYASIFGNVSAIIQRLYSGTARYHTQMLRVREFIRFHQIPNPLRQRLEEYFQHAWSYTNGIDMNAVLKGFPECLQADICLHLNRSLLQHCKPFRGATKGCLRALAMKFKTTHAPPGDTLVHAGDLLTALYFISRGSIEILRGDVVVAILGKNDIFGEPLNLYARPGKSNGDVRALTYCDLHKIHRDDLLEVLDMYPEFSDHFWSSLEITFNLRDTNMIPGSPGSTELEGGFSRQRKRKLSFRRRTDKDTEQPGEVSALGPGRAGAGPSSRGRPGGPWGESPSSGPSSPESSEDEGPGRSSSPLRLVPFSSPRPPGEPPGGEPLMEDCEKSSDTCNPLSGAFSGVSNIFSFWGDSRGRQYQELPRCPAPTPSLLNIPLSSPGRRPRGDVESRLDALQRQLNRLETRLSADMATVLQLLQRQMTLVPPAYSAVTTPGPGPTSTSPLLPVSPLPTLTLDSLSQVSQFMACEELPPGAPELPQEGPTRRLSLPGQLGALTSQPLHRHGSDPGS

Q: Which hERG (hERG) does the source give for `COc1ncnc(Cn2cc(C(=O)NCCO)c3ncc(C)cc32)c1C` [Compound 17, N-(2-hydroxyethyl)-1-((6-methoxy-5-methylpyrimidin-4-yl)methyl)-6-methyl-1H-pyrrolo[3,2-b]pyridine-3-carboxamide] here?
A: >33 µM

Q: And the predicted clearance ([1]; human, rat)?
A: 4-18 % of liver blood flow (% LBF)

Q: What about the “Human CLpred microsomes (% LBF)” value ([1]; pH 7.4) of the same molecule?
A: 16.1 % LBF

Q: What about the AUC(0-inf) (in vivo [2]) of the same molecule?
A: 986 ± 274 µM·h

Q: And the Cmax (in vivo [2])?
A: 46.1 ± 7.7 µM

Q: And the Tmax (in vivo [2])?
A: 5.3 ± 1.2 h

Q: What about the half-life (in vivo [2]) of the same molecule?
A: 3.8 ± 0.6 h

Q: And the AUC(0-inf) (in vivo [3]; BALB/c, mouse, po, 50 mg/kg)?
A: 420 ± 23.5 µM·h

Q: And the Cmax (in vivo [3]; BALB/c, mouse, po, 50 mg/kg)?
A: 74.8 ± 15.6 µM

Q: What about the Tmax (in vivo [3]; BALB/c, mouse, po, 50 mg/kg) of the same molecule?
A: 1.33 ± 0.58 h

Q: And the half-life (in vivo [3]; BALB/c, mouse, po, 50 mg/kg)?
A: 1.78 ± 0.1 h

Q: What about the C0h (in vivo [3]; Wistar rats, IV 2 mg/kg, n = 2) of the same molecule?
A: 2.64 µM

Q: What about the F (in vivo [3]; Wistar rats, oral 20 mg/kg, n = 2) of the same molecule?
A: 100%

Q: What about the AUC(0-t) (in vivo [3]; [11]) of the same molecule?
A: 3.46 µM·h

Q: What about the Vd (in vivo [3]; [11]) of the same molecule?
A: 7.34 L/kg

Q: And the clearance (in vivo [3]; [11])?
A: 27.4 mL/min/kg

Q: What about the bioavailability (in vivo [3]; Wistar, rat, in vivo, po) of the same molecule?
A: 92%

Q: What about the AUC(0-inf) (in vivo [3]; [12]) of the same molecule?
A: 59.8 µM·h

Q: What about the Cmax (in vivo [3]; [12]) of the same molecule?
A: 17.8 µM

Q: What about the Tmax (in vivo [3]; [12]) of the same molecule?
A: 0.5 h

Q: And the half-life (in vivo [3]; [12])?
A: 2.74 h

Q: And the MBC [4]?
A: 0.78 to 1.56 µM (≈ 0.277 to 0.554 µg/mL)

Q: What about the “Human CLpred hepatocytes (% LBF)” value [5] of the same molecule?
A: 9.2 % LBF

Q: And the “Rat CLpred hepatocytes (% LBF)” value [5]?
A: 17.9 % LBF

Q: What about the “Secondary pharmacology hits IC50” value [6] of the same molecule?
A: No significant hits

Q: What about the “in vitro safety profiling” value [6] of the same molecule?
A: no major safety liabilities

Q: What about the microsomal CLint (in vitro) of the same molecule?
A: 25 µL/min/mg

Q: And the CYP inhibition [7]?
A: >50 µM

Q: What about the MIC ([8]; Table 1) of the same molecule?
A: 1.56 µM (≈ 0.554 µg/mL)

Q: And the MIC ([8]; Table 4)?
A: 1.56 to 3.12 µM (≈ 0.554 to 1.11 µg/mL)

Q: What about the “MMIC (A549)” value [9] of the same molecule?
A: >100 µM

Q: And the “Mtb HBC” value [10]?
A: >100 µM
